Results taken from article PMC6508677, “Identification of druggable small molecule antagonists of the Plasmodium falciparum hexose transporter PfHT and assessment of ligand access to the glucose permeation pathway via FLAG-mediated protein engineering” (PLoS ONE, 2019).

Target: T1, PfHT (Plasmodium falciparum, UniProt Q7KWJ5)
T1 sequence (Q7KWJ5 1-504): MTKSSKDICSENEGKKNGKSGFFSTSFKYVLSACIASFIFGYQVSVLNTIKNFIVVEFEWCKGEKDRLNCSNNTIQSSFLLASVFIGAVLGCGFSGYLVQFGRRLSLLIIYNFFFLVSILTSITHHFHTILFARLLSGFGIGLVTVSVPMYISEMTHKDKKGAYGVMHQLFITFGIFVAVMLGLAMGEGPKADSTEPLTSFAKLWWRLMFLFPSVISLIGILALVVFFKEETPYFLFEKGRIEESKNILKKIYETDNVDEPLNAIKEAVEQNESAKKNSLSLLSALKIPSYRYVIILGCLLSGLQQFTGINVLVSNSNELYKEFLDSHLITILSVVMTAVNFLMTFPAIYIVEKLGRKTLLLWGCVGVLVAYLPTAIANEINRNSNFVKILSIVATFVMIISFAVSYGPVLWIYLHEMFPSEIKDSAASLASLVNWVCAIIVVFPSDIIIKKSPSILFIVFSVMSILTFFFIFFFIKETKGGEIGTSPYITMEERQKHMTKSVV
Assay: 2-DG uptake by HEK293 cells overexpressing PfHT
Type: cell-based
Set-up: expressed in transfected cells; host or cells: HEK293 (HEK293-FLIP, native hGLUT1 knocked down by shRNA)
Details: for remaining activity at 0.001 µM: 0.001 µM compound; for remaining activity at 0.3125 µM: 0.3125 µM compound (0.313 in Fig 1 sheet for WU-1); for remaining activity at 0.625 µM: 0.625 µM compound; for remaining activity at 1.25 µM: 1.25 µM compound; for remaining activity at 2.5 µM: 2.5 µM compound; for remaining activity at 5 µM: 5 µM compound; for remaining activity at 10 µM: 10 µM compound; for remaining activity at 20 µM: 20 µM compound; for remaining activity at 80 µM: 80 µM compound; for remaining activity at 160 µM: 160 µM compound; for remaining activity at 225 µM: 225 µM compound; for IC50: IC50 for inhibition of 2-DG uptake, HEK293 cells overexpressing PfHT, mean/reported value
Text: Generation of HEK293 cells overexpressing PfHT and human GLUTs 1–4 were described elsewhere. Briefly, HEK293 cells were transfected with pcDNA3.1 FLII12Pglu-7006 (Addgene), containing the fluorescence resonance energy transfer (FRET) glucose sensor (HEK293-FLIP) and PfHT, human GLUT1 (hGLUT1), hGLUT2, hGLUT3, hGLUT4, hGLUT5 or hGLUT8 using Optifect (Life Technologies) according to manufacturer’s specifications. To increase retention of GLUT8 at the plasma membrane, the dileucine sorting signal E^7E^8XXXLL was modified to R^7R^8XXXLL as described in [17]. Stable transfectants were selected for G418 and hygromycin resistance to select for FRET sensor and hexose transporter, respectively. HEK293-FLIP cells were also used to generate cells stably transfected with FLAG-tagged PfHT (FTPfHT). FLAG tag ([…]) followed by a triple glycine linker and a tobacco etch virus (TEV) protease site (ENLYFQS) followed by a triple glycine linker was added to the N-terminus of PfHT via PCR [18] using Phusion Hot Start II High-Fidelity DNA Polymerase (Fisher Scientific). Single clones were selected by comparing their abilities to transport glucose as assayed via FRET and radiolabeled hexose uptake. In all cell lines, except for HEK293 cells overexpressing hGLUT1 and hGLUT5, native hGLUT1 was knocked down using shRNA as described elsewhere. Transcript levels of the individual GLUTs expressed in each cell line are as described in [13, 15] and in S1 Fig.
Glucose uptake by P. falciparum was performed essentially as described. P. falciparum strain 3D7 was cultured in 100 mm tissue culture dishes (Techno Plastic Products) in a 2% suspension of human erythrocytes and RPMI 1640 medium until reaching > 7.5% parasitemia. Cells were pelleted via centrifugation and resuspended in RPMI 1640 medium. To determine the uptake of radiolabeled glucose into the parasite, parasites were isolated from infected erythrocytes by permeablization with saponin (0.05 w/v), followed by centrifugation, aspiration of supernatant and washing of the pellet 3X with saline solution (135 mM NaCl, 2 mM KCl, 25 mM HEPES, 0.2 mM glucose and 1 mM MgCl2; pH 7.1) to remove cellular debris. WU-1 or DMSO vehicle were added to 100 μl parasites (resuspended in saline) 5 min prior to the addition of 100 μl [^14C]2-DOG (0.2- μCi/ml final concentration). 2-DG uptake was stopped after 2 min by layering the entire reaction over 300 μl of an oil mixture (5:4 mix of dibutyl phthalate / dinonyl phthalate) in Eppendorf tubes and centrifuged at 15,850 × g for 2 mins. The ratio of the estimated intracellular concentration of radiolabel relative to the extracellular concentration were calculated as described. Uptake of radiolabeled hexose into HEK293 cells was measured in glucose-free HBSS as described previously. Briefly, cells were plated at 400,000 cells/well overnight at 37°C in 24-well plates pre-treated with PEI. After 30-min incubation at 37°C in glucose-free HBSS in the presence of vehicle or increasing concentrations of compound, 2-DG uptake was measured in glucose-free HBSS for 4 min at 37°C. Cultures were washed in ice-cold 1X PBS and lysed in 0.1% Triton X-100 in 1X PBS. Radiolabeled hexose uptake was determined by liquid scintillation counting (Ultima Gold, Thermo Fisher) and normalized to total protein per well. Uptake data are plotted as percent uptake relative to vehicle-treated cells. Kinetic analyses were performed using the indicated concentrations of substrate and WU-1, with quenching of uptake after 1 min incubation. Incubation times had been previously determined as being in the linear range of time-dependent radiolabeled hexose uptake (2 min for 2-DG uptake into freed parasites; 2 and 4 min for D-Frc and 2-DG uptake HEK cell lines, respectively). Data were fit by least squares nonlinear regression analysis using GraphPad Prism 6.0 software.

[1] = HEK293, 4 min, read-out: 2-DG uptake (percent uptake relative to vehicle), AVE, PfHT
[2] = HEK293, 4 min, read-out: % Inhibition of 2-DG uptake vs vehicle

Structure (SMILES)	remaining activity at 0.001 µM [1] [%]	remaining activity at 0.3125 µM [1] [%]	remaining activity at 0.625 µM [1] [%]	remaining activity at 1.25 µM [1] [%]	remaining activity at 2.5 µM [1] [%]	remaining activity at 5 µM [1] [%]	remaining activity at 10 µM [1] [%]	remaining activity at 20 µM [1] [%]	remaining activity at 80 µM [1] [%]	remaining activity at 160 µM [1] [%]	remaining activity at 225 µM [1] [%]	inhibition at 2.5 µM [2] [%]	IC50 [µM]	remaining activity at 40 µM (HEK293, 4 min, read-out: 2-DG uptake (percent uptake relative to vehicle), AVE, PfHT, 40 µM compound) [%]	inhibition at 10 µM [2] [%]
COc1cc(/C=C2\COC/C(=C\c3cc(OC)c(OC)c(OC)c3)C2=O)cc(OC)c1OC [WU-5, (3E,5E)-3,5-bis[(3,4,5-trimethoxyphenyl)methylidene]oxan-4-one]	100	92.8	89.8	72.2	61.4	48.9	32	30.9	32.8	34.5	35.8	47	1.9	–	–
COc1cc(/C=N/NC(=O)c2cc(-c3ccccc3)sc2N)cc(OC)c1OC [WU-3, 2-amino-5-phenyl-N'-[(E)-(3,4,5-trimethoxyphenyl)methylidene]thiophene-3-carbohydrazide]	100	109	104	103	104	87.6	62	42.7	37.1	31.1	18.9	–	9.2	42.2	51.8
